Laboratory results published in ChEMBL document CHEMBL4330116, “Harzianoic acids A and B, new natural scaffolds with inhibitory effects against hepatitis C virus” (Bioorg Med Chem, 2019).

How the values were obtained:
[1] = Cytotoxicity against human Huh7.5 cells after 72 hrs by MTT assay; format: cell-based
[2] = Selectivity index, ratio of CC50 for human Huh7.5 cells to EC50 for antiviral activity against HCV genotype 2a JFH/JC1 infected in human Huh7.5 cells; format: toxicity, cell-based; settings: read-out: Ratio CC50/EC50
[3] = tested on: Hepatitis C virus; experiment: Antiviral activity against HCV genotype 2a JFH/JC1 infected in human Huh7.5 cells assessed as inhibition of viral RNA replication after 72 hrs by qRT-PCR analysis; format: functional, organism-based, Hepacivirus hominis; settings: subtype 2a JFH/JC1, Huh7.5, 72 h
[4] = molecular target: T1, CD81 antigen (Homo sapiens) (UniProt P60033); experiment: Binding affinity to CD81 (unknown origin) assessed as association rate constant by surface plasmon resonance assay
T1 sequence (whole entry): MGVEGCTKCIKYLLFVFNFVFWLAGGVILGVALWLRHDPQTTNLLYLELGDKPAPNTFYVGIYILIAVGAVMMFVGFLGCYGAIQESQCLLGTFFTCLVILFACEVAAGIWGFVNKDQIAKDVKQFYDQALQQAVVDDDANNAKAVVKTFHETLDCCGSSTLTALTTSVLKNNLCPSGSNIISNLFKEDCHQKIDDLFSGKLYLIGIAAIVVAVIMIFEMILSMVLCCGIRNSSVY

[5] = tested on: Hepatitis C virus; experiment: Antiviral activity against HCV pseudoparticles infected in human Huh7.5 cells infected with HCV pseudoparticles expressed in 293T cells with plasmid encoding HCV E1, E2, envelope and Vpr deficient HIV vector carrying luciferase reporter gene inserted into Nef position assessed as inhibition of pseudoparticle entry after 72 hrs by luciferase reporter gene assay; format: functional, organism-based, Hepacivirus hominis; settings: for inhibition: Hepacivirus hominis
[6] = molecular target: T2, CD81 antigen (Homo sapiens, UniProt P60033); experiment: Binding affinity to CD81 (unknown origin) by surface plasmon resonance assay
T2 sequence (P60033 whole entry): T1 sequence (whole entry)

[7] = molecular target: T1, CD81 antigen (Homo sapiens); experiment: Binding affinity to CD81 (unknown origin) assessed as disruption of interaction between CD81 the HCV envelope protein E2 at 5 uM by surface plasmon resonance assay relative to untreated control

Compound | CC50 at 72 h [1] [µM] | selectivity ratio [2] | EC50 [3] [µM] | Ka [4] [M⁻¹ s⁻¹] | IC50 [5] [µM] | inhibition [5] | Kd [6] [µM] | Ratio [7]
CCC[C@H](NC(=O)[C@@H]1[C@H]2CCC[C@H]2CN1C(=O)[C@@H](NC(=O)[C@@H](NC(=O)c1cnccn1)C1CCCCC1)C(C)(C)C)C(=O)C(=O)NC1CC1 [TELAPREVIR] | 26.5 | 491 | – | – | – | – | – | –
CC(C)OC(=O)[C@H](C)NP(=O)(OC[C@H]1O[C@@H](n2ccc(=O)[nH]c2=O)[C@](C)(F)[C@@H]1O)Oc1ccccc1 (stereo not given in full) | > 200 | > 3120 | 0.06 | – | – | – | – | –
CC(=O)[C@@H]1C[C@H](C(=O)O)[C@@]1(C)CC/C=C(\C)C(=O)O | 75.3 | 3 | 24.5 | 5.33e+06 | 35.5 | Dose-dependent effect | 0.0378 | 33
C/C(=C\CC[C@]1(C)[C@@H](C(=O)O)C[C@H]1[C@](C)(O)C(=O)O)C(=O)O | 74.3 | 4 | 20.4 | 3.81e+07 | 42.9 | Dose-dependent effect | 0.0665 | –
